Results from PubChem BioAssay AID248 (DTP/NCI, 2004).
Values joined by “and” are separate entries in the source; they are usually repeats but may differ in a detail not shown here. Identical values can stand only once. Toxic doses and inconclusive results are not listed. No stated cut-off is given here; in the data, active means T/C of 150% or more; inactive means T/C below 125%.

Tested on: L1210 leukemia ip in BDF1 mice, survival T/C
Test: NCI In Vivo Anticancer Drug Screen. Data for tumor model L1210 Leukemia (intraperitoneal) in B6D2F1 (BDF1) mice
Settings: endpoint: mean survival time, higher = longer survival
In short: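 Each compound was tested against a transplantable tumor grown in mice. The endpoint was survival, with treated animals benchmarked against vehicle controls as a simple ratio.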

Measured: T/C

C[C@H](N)C(=O)N[C@@H]1[C@H]2C(=C(O)C[C@@H](O)[C@@H]2O)C(=O)O[C@@H]1C
active: dose: 300.0 mg/kg/injection, schedule: Q01DX Z (ip), vehicle: saline 160 % of control | dose: 320.0 mg/kg/injection, schedule: Q01DX015 (ip), vehicle: saline 156 % of control and 174 % of control | dose: 400.0 mg/kg/injection, schedule: Q01DX013 (ip), vehicle: saline 178 % of control | dose: 400.0 mg/kg/injection, schedule: Q01DX Z (ip), vehicle: saline 151 % of control | dose: 450.0 mg/kg/injection, schedule: Q01DX015 (ip), vehicle: saline 155 % of control
inactive: dose: 16.0 mg/kg/injection, schedule: Q01DX Z (ip), vehicle: carboxymethylcellulose (CMC) 100 % of control | dose: 31.0 mg/kg/injection, schedule: Q01DX Z (ip), vehicle: carboxymethylcellulose (CMC) 97 % of control | dose: 37.5 mg/kg/injection, schedule: Q01DX010 (ip), vehicle: saline 102 % of control and 104 % of control | dose: 50.0 mg/kg/injection, schedule: Q01DX001 (ip), vehicle: saline 105 % of control | dose: 50.0 mg/kg/injection, schedule: Q#A X Z (ip), vehicle: saline 120 % of control | dose: 62.0 mg/kg/injection, schedule: Q01DX Z (ip), vehicle: carboxymethylcellulose (CMC) 112 % of control | dose: 75.0 mg/kg/injection, schedule: Q01DX010 (ip), vehicle: saline 104 % of control | dose: 88.0 mg/kg/injection, schedule: Q01DX015 (ip), vehicle: saline 118 % of control | dose: 100.0 mg/kg/injection, schedule: Q01DX001 (ip), vehicle: saline 104 % of control | dose: 100.0 mg/kg/injection, schedule: Q01DX006 (iv), vehicle: saline 101 % of control | dose: 100.0 mg/kg/injection, schedule: Q01DX Z (im), vehicle: saline 98 % of control | dose: 100.0 mg/kg/injection, schedule: Q01DX Z (sc), vehicle: saline 102 % of control | dose: 125.0 mg/kg/injection, schedule: Q01DX Z (ip), vehicle: carboxymethylcellulose (CMC) 124 % of control | dose: 125.0 mg/kg/injection, schedule: Q01DX Z (ip), vehicle: saline 116 % of control | dose: 130.0 mg/kg/injection, schedule: Q01DX015 (ip), vehicle: saline 114 % of control | dose: 150.0 mg/kg/injection, schedule: Q01DX005 (ip), vehicle: saline 104 % of control | dose: 150.0 mg/kg/injection, schedule: Q03HX016 (ip), vehicle: saline 103 % of control | dose: 150.0 mg/kg/injection, schedule: Q08DX002 (ip), vehicle: saline 116 % of control | dose: 200.0 mg/kg/injection, schedule: Q01DX001 (ip), vehicle: saline 110 % of control | dose: 200.0 mg/kg/injection, schedule: Q01DX006 (iv), vehicle: saline 104 % of control | dose: 200.0 mg/kg/injection, schedule: Q01DX015 (ip), vehicle: saline 120 % of control | dose: 200.0 mg/kg/injection, schedule: Q01DX Z (im), vehicle: saline 110 % of control | dose: 200.0 mg/kg/injection, schedule: Q01DX Z (sc), vehicle: saline 116 % of control | dose: 268.0 mg/kg/injection, schedule: Q## X004 (ip), vehicle: saline 108 % of control | dose: 300.0 mg/kg/injection, schedule: Q01DX001 (sc), vehicle: saline 96 % of control | dose: 300.0 mg/kg/injection, schedule: Q01DX005 (ip), vehicle: saline 116 % of control | dose: 300.0 mg/kg/injection, schedule: Q01DX009 (sc), vehicle: saline 113 % of control | dose: 300.0 mg/kg/injection, schedule: Q03HX016 (ip), vehicle: saline 110 % of control | dose: 300.0 mg/kg/injection, schedule: Q03HX024 (ip), vehicle: saline 109 % of control | dose: 300.0 mg/kg/injection, schedule: Q04DX003 (ip), vehicle: saline 119 % of control | dose: 300.0 mg/kg/injection, schedule: Q08DX002 (ip), vehicle: saline 111 % of control | dose: 333.0 mg/kg/injection, schedule: Q02DX004 (ip), vehicle: saline 116 % of control | dose: 352.0 mg/kg/injection, schedule: Q## X032 (ip), vehicle: saline 116 % of control | dose: 400.0 mg/kg/injection, schedule: Q01DX001 (ip), vehicle: saline 105 % of control | dose: 400.0 mg/kg/injection, schedule: Q01DX006 (iv), vehicle: saline 113 % of control | dose: 400.0 mg/kg/injection, schedule: Q01DX Z (oral), vehicle: saline 104 % of control | dose: 400.0 mg/kg/injection, schedule: Q## X004 (ip), vehicle: saline 113 % of control | dose: 536.0 mg/kg/injection, schedule: Q## X032 (ip), vehicle: saline 119 % of control and 120 % of control | dose: 600.0 mg/kg/injection, schedule: Q01DX001 (sc), vehicle: saline 105 % of control
